Each block holds one compound with its values, some of them ahead of it.
Key:
PAR2 [1] = target: T1, PAR2 (Homo sapiens (Human), UniProt P55085); assay: Trypsin activated FLPR Ca2+ mobilization assay for PAR2 antagonist activity; type: cell-based
Description: Trypin Activated FLPR Assay:
Protocol for Testing Compounds for PAR2 Antagonist Activity Using a Ca2+ Mobilization Assay
Calcium mobilization was measured using 1321N1 cells stably expressing human PAR2. Cells were seeded in 384-well plates at 4,000 cells per well in 20 μl DMEM with Glutamax supplemented with 10% FBS and incubated for 18-24 h at 37° C., 5% CO2 and 95% humidity. […] The addition was done using a FLIPR^TETRA (384-well head, Molecular Devices) and the response was read simultaneously to detect any agonist activity.

PAR2 [2] = target: T1, PAR2; assay: IP-One HTRF assay for PAR2 antagonist activity (IP1 production); type: cell-based
Description: Protocol for Testing Compounds for PAR2 Antagonist Activity Using an IP-One HTRF Assay
Inositol monophosphate (IP1) production were measured in 1321N1 cells stably expressing human PAR2 using an IP-One HTRF assay kit (Cisbio). […] After 60 min at 37° C. cells were lysed and IP1 concentrations were detected according to the manufacturers protocol (Cisbio). Data were normalized to IP1 concentrations using a IP1 standard curve according to the manufacturers protocol (Cisbio).

[3] = hPAR2 FLPR (Trypsin) IC50 (μM), 1321N1 cells stably expressing human PAR2, agonist Trypsin, Vorapaxar present to block PAR1
[4] = hPAR2 IPpone IC50 (μM), 1321N1 cells stably expressing human PAR2, agonist SLIGRL-NH2
[5] = 1321N1 cells stably expressing human PAR2, agonist Trypsin, Vorapaxar present to block PAR1, read-out: hPAR2 FLPR (Trypsin) IC50
[6] = 1321N1 cells stably expressing human PAR2, agonist SLIGRL-NH2, read-out: hPAR2 IPpone IC50

T1 sequence (P55085 26-397): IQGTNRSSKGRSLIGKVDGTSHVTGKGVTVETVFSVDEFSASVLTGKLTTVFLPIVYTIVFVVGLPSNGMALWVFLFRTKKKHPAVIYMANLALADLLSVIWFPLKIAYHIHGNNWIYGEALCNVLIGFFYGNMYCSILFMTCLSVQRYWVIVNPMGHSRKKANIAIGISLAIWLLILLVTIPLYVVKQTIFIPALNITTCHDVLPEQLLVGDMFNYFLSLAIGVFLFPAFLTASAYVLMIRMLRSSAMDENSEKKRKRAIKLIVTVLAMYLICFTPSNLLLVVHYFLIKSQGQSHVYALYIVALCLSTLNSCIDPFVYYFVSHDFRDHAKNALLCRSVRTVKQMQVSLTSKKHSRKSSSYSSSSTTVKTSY

SMILES: CCc1coc2c(F)ccc(C(O)c3ncc[nH]3)c12 (stereo not drawn) [Example 40, (3-Ethyl-7-fluorobenzofuran-4-yl)(1H-imidazol-2-yl)methanol]
IC50 (PAR2 [1]; [3]): 4.9 µM
IC50 (PAR2 [2]; [4]): 0.75 µM

SMILES: OC(c1ncc[nH]1)c1ccc(F)c2occ(C3CC3)c12 (stereo not drawn) [Example 43, (3-Cyclopropyl-7-fluorobenzofuran-4-yl)(1H-imidazol-2-yl)methanol]
IC50 (PAR2 [1]; [5]): 4.58 µM
IC50 (PAR2 [2]; [6]): 0.86 µM

SMILES: OC(c1ncc[nH]1)c1ccccc1C1=CCCC1 (stereo not drawn) [Example 4, (2-Cyclopentenylphenyl)(1H-imidazol-2-yl)methanol]
IC50 (PAR2 [1]; [5]): 16.6 µM
IC50 (PAR2 [2]; [6]): 6.27 µM

SMILES: Cc1coc2c(F)ccc(C(O)c3ncc[nH]3)c12 (stereo not drawn) [Example 52, (7-Fluoro-3-methylbenzofuran-4-yl)(1H-imidazol-2-yl)methanol]
IC50 (PAR2 [1]; [5]): 3.27 µM
IC50 (PAR2 [2]; [6]): 0.97 µM

SMILES: C/C=C/c1cc(F)ccc1C(O)c1ncc[nH]1 (stereo not drawn) [Example 8, (E)-(4-Fluoro-2-(prop-1-enyl)phenyl)(1H-imidazol-2-yl)methanol]
IC50 (PAR2 [1]; [5]): 5.1 µM
IC50 (PAR2 [2]; [6]): 5.64 µM

SMILES: OC(c1ncc[nH]1)c1ccc(F)cc1N1CCC(F)(F)C1 (stereo not drawn) [Example 28, (2-(3,3-Difluoropyrrolidin-1-yl)-4-fluorophenyl)(1H-imidazol-2-yl)methanol]
IC50 (PAR2 [1]; [5]): 30.3 µM
IC50 (PAR2 [2]; [6]): 4.91 µM

SMILES: CCCc1c(C(O)c2ncc[nH]2)ccc(F)c1F (single isomer, unassigned) [Example 11, (3,4-Difluoro-2-propylphenyl)(1H-imidazol-2-yl)methanol]
IC50 (PAR2 [1]; [5]): > 77 µM
IC50 (PAR2 [2]; [6]): > 41 µM

SMILES: Cn1ncc2c(F)ccc(C(O)c3ncc[nH]3)c21 (stereo not drawn) [Example 62, (4-Fluoro-1-methyl-1H-indazol-7-yl)(1H-imidazol-2-yl)methanol]
IC50 (PAR2 [2]; [6]): 3.38 µM

SMILES: CCn1ccc2c(F)ccc(C(O)c3ncc[nH]3)c21 (stereo not drawn) [Example 57, (1-Ethyl-4-fluoro-1H-indol-7-yl)(1H-imidazol-2-yl)methanol]
IC50 (PAR2 [1]; [5]): 9.03 µM
IC50 (PAR2 [2]; [6]): 1.65 µM

SMILES: CCc1coc2c(F)ccc(C(O)c3ncn[nH]3)c12 (stereo not drawn) [Example 63, (3-Ethyl-7-fluorobenzofuran-4-yl)(1H-1,2,4-triazol-5-yl)methanol]
IC50 (PAR2 [1]; [5]): 15.6 µM

SMILES: OC(c1ncc[nH]1)c1ccc(F)cc1N1CC[C@H](F)C1 (stereo partly drawn) [Example 26, (4-Fluoro-2-((S)-3-fluoropyrrolidin-1-yl)phenyl)(1H-imidazol-2-yl)methanol]
IC50 (PAR2 [2]; [6]): 3.87 µM

SMILES: OC(c1ncc[nH]1)c1ccc(F)cc1N1CC[C@@H](F)C1 (stereo partly drawn) [Example 27, (4-Fluoro-2-((R)-3-fluoropyrrolidin-1-yl)phenyl)(1H-imidazol-2-yl)methanol]
IC50 (PAR2 [1]; [5]): > 41.6 µM
IC50 (PAR2 [2]; [6]): 6.96 µM

SMILES: OC(c1ncc[nH]1)c1ccc(F)cc1N1CCCC1 (single isomer, unassigned) [Example 15, (4-Fluoro-2-(pyrrolidin-1-yl)phenyl)(1H-imidazol-2-yl)methanol]
IC50 (PAR2 [1]; hPAR2 FLPR (Trypsin) IC50 (μM)): > 41 µM
IC50 (PAR2 [2]; hPAR2 IPpone IC50 (μM)): > 100 µM

SMILES: OC(c1ncc[nH]1)c1ccc(F)cc1N1CC=CC1 (stereo not drawn) [Example 17, (2-(2,5-dihydro-1H-pyrrol-1-yl)-4-fluorophenyl)(1H-imidazol-2-yl)methanol]
IC50 (PAR2 [1]; [5]): 8.75 µM
IC50 (PAR2 [2]; [6]): 1.05 µM

SMILES: OC(c1ncc[nH]1)c1ccc(F)cc1N1CC=CC1 (single isomer, unassigned) [Example 19, (2-(2,5-dihydro-1H-pyrrol-1-yl)-4-fluorophenyl) (1H-imidazol-2-yl)methanol]
IC50 (PAR2 [1]; [5]): > 100 µM
IC50 (PAR2 [2]; [6]): 93 µM

SMILES: OC(c1ncc[nH]1)c1cccc2cc3n(c12)CCC3 (stereo not drawn) [Example 58, (2,3-Dihydro-1H-pyrrolo[1,2-a]indol-5-yl)(1H-imidazol-2-yl)methanol]
IC50 (PAR2 [1]; [5]): > 41.6 µM

SMILES: OC(c1ncc[nH]1)c1ccc(F)cc1-c1cscn1 (stereo not drawn) [Example 33, (4-Fluoro-2-(thiazol-4-yl)phenyl)(1H-imidazol-2-yl)methanol]
IC50 (PAR2 [1]; hPAR2 FLPR (Trypsin) IC50 (μM)): 16.8 µM
IC50 (PAR2 [2]; hPAR2 IPpone IC50 (μM)): 3.6 µM

SMILES: OC(c1ncc[nH]1)c1ccc(F)c2ccc(Cl)n12 (stereo not drawn) [Example 61, (3-Chloro-8-fluoro-indolizin-5-yl)-(1H-imidazol-2-yl)methanol]
IC50 (PAR2 [1]; [5]): 3.1 µM
IC50 (PAR2 [2]; [6]): 1.9 µM

SMILES: OC(c1ncc[nH]1)c1ccc(F)c(F)c1-n1cccn1 (stereo not drawn) [Example 22, (3,4-Difluoro-2-(1H-pyrazol-1-yl)phenyl)(1H-imidazol-2-yl)methanol]
IC50 (PAR2 [1]; [5]): 20 µM
IC50 (PAR2 [2]; [6]): 4.6 µM

SMILES: CCCc1c(Cl)cccc1C(O)c1ncc[nH]1 (stereo not drawn) [Example 13, (3-Chloro-2-propylphenyl)(1H-imidazol-2-yl)methanol]
IC50 (PAR2 [1]; [3]): 12.4 µM
IC50 (PAR2 [2]; [4]): 5.45 µM

SMILES: OC(c1ncc[nH]1)c1ccc(F)cc1C1CCCC1 (stereo not drawn) [Example 6, (2-Cyclopentyl-4-fluorophenyl)(1H-imidazol-2-yl)methanol]
IC50 (PAR2 [1]; [5]): 9.57 µM
IC50 (PAR2 [2]; [6]): 5 µM

SMILES: OC(c1ncc[nH]1)c1ccc(F)c2ccc(C3CC3)n12 (stereo not drawn) [Example 39, (3-Cyclopropyl-8-fluoroindolizin-5-yl)(1H-imidazol-2-yl)methanol]
IC50 (PAR2 [2]; [4]): 13.2 µM

IC50 (PAR2 [1]; [3]): 2.19 µM
IC50 (PAR2 [2]; [4]): 26 µM
SMILES: CCc1coc2c(F)ccc([C@@H](O)c3ncc[nH]3)c12 (single isomer, unassigned) [Example 41]

SMILES: CC(C)c1ccc2c(F)ccc(C(O)c3ncc[nH]3)n12 (stereo not drawn) [Example 38, (8-Fluoro-3-isopropylindolizin-5-yl)(1H-imidazol-2-yl)methanol]
IC50 (PAR2 [1]; [3]): 13.9 µM
IC50 (PAR2 [2]; [4]): 1.91 µM

SMILES: CCCc1c(C(O)c2ncc[nH]2)ccc(F)c1F (stereo not drawn) [Example 10, (3,4-Difluoro-2-propylphenyl)(1H-imidazol-2-yl)methanol]
IC50 (PAR2 [1]; [5]): 5.9 µM
IC50 (PAR2 [2]; [6]): 1.66 µM

SMILES: Cn1ccc2c(F)ccc(C(O)c3ncc[nH]3)c21 (single isomer, unassigned) [Example 56, (4-Fluoro-1-methyl-1H-indol-7-yl)(1H-imidazol-2-yl)methanol]
IC50 (PAR2 [1]; [5]): > 41.6 µM
IC50 (PAR2 [2]; [6]): > 100 µM

SMILES: CC1CN(c2cc(F)ccc2C(O)c2ncc[nH]2)C1 (stereo not drawn) [Example 25, (4-Fluoro-2-(3-methylazetidin-1-yl)phenyl)(1H-imidazol-2-yl)methanol]
IC50 (PAR2 [1]; [5]): 22 µM
IC50 (PAR2 [2]; [6]): 6.88 µM

SMILES: OC(c1ncc[nH]1)c1ccc(F)c2occ(C3CC3)c12 (single isomer, unassigned) [Example 45, (3-Cyclopropyl-7-fluorobenzofuran-4-yl)(1H-imidazol-2-yl)methanol]
IC50 (PAR2 [1]; [5]): 6.07 µM
IC50 (PAR2 [2]; [6]): 0.63 µM

SMILES: Cc1ccc2c(F)ccc(C(O)c3ncc[nH]3)n12 (stereo not drawn) [Example 37, (8-Fluoro-3-methylindolizin-5-yl)(1H-imidazol-2-yl)methanol]
IC50 (PAR2 [1]; [5]): 3.27 µM
IC50 (PAR2 [2]; [6]): 0.97 µM

SMILES: OC(c1ncc[nH]1)c1ccc(F)cc1N1CCCC1 (stereo not drawn) [Example 14, (4-Fluoro-2-(pyrrolidin-1-yl)phenyl)(1H-imidazol-2-yl)methanol]
IC50 (PAR2 [1]; hPAR2 FLPR (Trypsin) IC50 (μM)): 16.9 µM
IC50 (PAR2 [2]; hPAR2 IPpone IC50 (μM)): 1.52 µM

SMILES: OC(c1ncc[nH]1)c1ccc(F)cc1C1=CCCC1 (stereo not drawn) [Example 5, (2-Cyclopentenyl-4-fluorophenyl)(1H-imidazol-2-yl)methanol]
IC50 (PAR2 [1]; [5]): 13.7 µM
IC50 (PAR2 [2]; [6]): 5.18 µM

SMILES: C[C@@H]1CCN(c2cc(F)ccc2C(O)c2ncc[nH]2)C1 (stereo partly drawn) [Example 29, (4-Fluoro-2-((R)-3-methylpyrrolidin-1-yl)phenyl)(1H-imidazol-2-yl)methanol]
IC50 (PAR2 [1]; [5]): > 41.6 µM
IC50 (PAR2 [2]; [6]): 13.1 µM

SMILES: CCCc1c(C(O)c2ncc[nH]2)ccc(F)c1F (single isomer, unassigned) [Example 12, (3,4-Difluoro-2-propylphenyl)(1H-imidazol-2-yl)methanol]
IC50 (PAR2 [1]; [5]): 4.9 µM
IC50 (PAR2 [2]; [6]): 4 µM

SMILES: OC(c1ncc[nH]1)c1ccc(F)cc1C12CCCC1C2 (stereo not drawn) [Example 31, (2-(Bicyclo[3.1.0]hexan-1-yl)-4-fluorophenyl)(1H-imidazol-2-yl)methanol]
IC50 (PAR2 [1]; [5]): > 41 µM
IC50 (PAR2 [2]; [6]): 4.32 µM

SMILES: Cn1ccc2c(F)ccc(C(O)c3ncc[nH]3)c21 (stereo not drawn) [Example 54, (4-Fluoro-1-methyl-1H-indol-7-yl)(1H-imidazol-2-yl)methanol]
IC50 (PAR2 [1]; [5]): 6.15 µM

SMILES: OC(c1ncc[nH]1)c1ccc(F)cc1N1CC=CC1 (single isomer, unassigned) [Example 18, (2-(2,5-dihydro-1H-pyrrol-1-yl)-4-fluorophenyl)(1H-imidazol-2-yl)methanol]
IC50 (PAR2 [1]; [5]): 4.28 µM
IC50 (PAR2 [2]; [6]): 0.9 µM

SMILES: OC(c1ncc[nH]1)c1ccc(F)cc1-c1cocn1 (stereo not drawn) [Example 32, (4-Fluoro-2-(oxazol-4-yl)phenyl)(1H-imidazol-2-yl)methanol]
IC50 (PAR2 [1]; [5]): 30.6 µM
IC50 (PAR2 [2]; [6]): 14.3 µM

SMILES: OC(c1ncc[nH]1)c1ccc(F)cc1C1CCC1 (stereo not drawn) [Example 7, (2-Cyclobutyl-4-fluorophenyl)(1H-imidazol-2-yl)methanol]
IC50 (PAR2 [1]; [5]): 7.85 µM
IC50 (PAR2 [2]; [6]): 11.5 µM

SMILES: CCCc1cc(F)ccc1[C@@H](O)c1ncc[nH]1 [Example 2, (R)-(4-fluoro-2-propylphenyl)(1H-imidazol-2-yl)methanol]
IC50 (PAR2 [1]; [5]): > 41 µM
IC50 (PAR2 [2]; [6]): > 100 µM

SMILES: OC(c1ncc[nH]1)c1ccc(F)c2occ(C3CC3)c12 (single isomer, unassigned) [Example 44, (3-Cyclopropyl-7-fluorobenzofuran-4-yl)(1H-imidazol-2-yl)methanol]
IC50 (PAR2 [1]; [5]): > 41 µM
IC50 (PAR2 [2]; [6]): 6.54 µM

SMILES: CCCc1cc(F)ccc1C(O)c1ncc[nH]1 (stereo not drawn) [Example 1, (4-Fluoro-2-propylphenyl)(1H-imidazol-2-yl)methanol]
IC50 (PAR2 [2]; hPAR2 IPpone IC50 (μM)): 2.93 µM

Reference: patent US10550089B2, “Inhibitors of protease-activated receptor-2” (Heptares Therapeutics Limited, priority 2016, dated 2020)
